{"source": "patent US10962541B2", "about": "(priority 2014, dated 2021)", "key": {"[1]": {"test_system": "RhoA", "format": "cell-based"}, "[2]": {"test_system": "polarized endothelial cells", "assay": "Cell barrier function and viral infection in polarized endothelial cells", "format": "cell-based", "conditions": "unpublished results"}, "[3]": {"test_system": "Rap1", "format": "cell-based, monkey"}, "[4]": {"test_system": "RhoA", "format": "cell-based, monkey"}, "[5]": {"target": "T1, Rac1 (Homo sapiens, UniProt P63000)", "T1 construct": "endogenous in cells; host or cells: HeLa (ATCC)", "assay": "G-trap assay validation, active Rac1 in HeLa cells", "format": "cell-based", "conditions": "calpeptin-mediated activation of RhoA"}}}
{"smiles": "COc1ccc(C2CC(c3ccccc3)=NN2c2ccc(S(N)(=O)=O)cc2)cc1", "note": "(stereo not shown) [CID2950007]", "values": [{"measurement": "RhoA activity", "setting": "[1]", "result": "no effect on RhoA activity"}]}
{"smiles": "C[C@@H](N)[C@H]1CC[C@H](C(=O)Nc2ccncc2)CC1", "note": "[Y27632]", "values": [{"measurement": "loss of cell barrier function", "setting": "[2]", "result": "blocks the loss of cell barrier function"}, {"measurement": "viral infection", "setting": "[2]", "result": "limits viral infection"}]}
{"smiles": "COC(=O)[C@H](CCSC)NC(=O)c1ccc(NC[C@@H](N)CS)cc1-c1ccccc1", "note": "[FTI277]", "values": [{"measurement": "increase in active Rap1", "setting": "[3]", "result": "~2", "unit": "fold"}]}
{"smiles": "CCCC[C@@H](C=O)NC(=O)[C@H](CC(C)C)NC(=O)OCc1ccccc1", "note": "[calpeptin]", "values": [{"measurement": "increase in active RhoA", "setting": "[4]", "result": "> 2", "unit": "fold"}, {"measurement": "Rac1 activity", "setting": "[5]", "result": "concomitant decrease in Rac1 activity"}]}
{"smiles": "CCN(CC)CCCC(C)Nc1nc(C)cc(Nc2ccc3nc(C)cc(N)c3c2)n1", "note": "(stereo not shown) [NSC23766]", "values": [{"measurement": "RhoA-GTP above EGF stimulation alone", "setting": "[4]", "result": 1.3, "unit": "fold"}, {"measurement": "RhoA-GTP increase above basal levels", "setting": "[4]", "result": 2, "unit": "fold"}, {"measurement": "RhoA activity", "setting": "[1]", "result": "elevated relative to resting cells"}, {"measurement": "activation of RhoA relative to resting cells", "setting": "[1]", "result": "> 5", "unit": "fold"}]}
